The NIST ThermoML archive (doi:10.1016/j.fluid.2009.06.008)

Assay: mn = molality of the nth substance listed, in mol/kg
Conditions: 101 kPa, Liquid; for viscosity: Capillary tube (Ostwald / Ubbelohde) method; for mass density: Vibrating tube method

O=C[C@H](O)[C@@H](O)[C@H](O)[C@H](O)CO [D-glucose] + O
Conditions	mass density [kg/m3]	viscosity [mPa·s]
278.15 K, m1 = 0.2	1019.65	1.694
278.15 K, m1 = 0.4	1031.6	1.873
278.15 K, m1 = 0.6	1043.55	2.074
278.15 K, m1 = 0.8	1055.51	2.3
278.15 K, m1 = 1	1067.46	2.536
278.15 K, m1 = 1.2	1079.41	2.802
283.15 K, m1 = 0.2	1017.74	1.451
283.15 K, m1 = 0.4	1029.58	1.599
283.15 K, m1 = 0.6	1041.42	1.766
283.15 K, m1 = 0.8	1053.25	1.953
283.15 K, m1 = 1	1065.09	2.147
283.15 K, m1 = 1.2	1076.93	2.374
288.15 K, m1 = 0.2	1015.54	1.258
288.15 K, m1 = 0.4	1027.28	1.383
288.15 K, m1 = 0.6	1039.02	1.524
288.15 K, m1 = 0.8	1050.75	1.682
288.15 K, m1 = 1	1062.49	1.849
288.15 K, m1 = 1.2	1074.22	2.029
293.15 K, m1 = 0.2	1013.09	1.104
293.15 K, m1 = 0.4	1024.74	1.21
293.15 K, m1 = 0.6	1036.38	1.329
293.15 K, m1 = 0.8	1048.03	1.46
293.15 K, m1 = 1	1059.67	1.619
293.15 K, m1 = 1.2	1071.32	1.754
298.15 K, m1 = 0.2	1010.39	0.9748
298.15 K, m1 = 0.4	1023.11	1.066
298.15 K, m1 = 0.6	1035.26	1.166
298.15 K, m1 = 0.8	1046.85	1.272
298.15 K, m1 = 1	1057.94	1.395
298.15 K, m1 = 1.2	1068.55	1.528
303.15 K, m1 = 0.2	–	0.8685
303.15 K, m1 = 0.4	1018.93	0.9469
303.15 K, m1 = 0.6	1030.42	1.035
303.15 K, m1 = 0.8	1041.92	1.132
303.15 K, m1 = 1	1053.41	1.236
303.15 K, m1 = 1.2	1064.9	1.343
308.15 K, m1 = 0.2	1004.38	0.7811
308.15 K, m1 = 0.4	1015.81	0.8496
308.15 K, m1 = 0.6	1027.24	0.9264
308.15 K, m1 = 0.8	1038.67	1.01
308.15 K, m1 = 1	1050.1	1.096
308.15 K, m1 = 1.2	1061.53	1.194
